According to US8431583B2, “Use of purine derivatives for the manufacture of a medicament” (Centre National de la Recherche Scientifique, priority 2007, dated 2013):
Values belong to the compound of their own block, whether it stands above or below them.

Experiments:
CK1δ/e = assay: Kinase assay CK1; settings: read-out: IC50 CK1; 15 μM ATP, 30° C., buffer A
[1] = tested on: B2 lymphocytes originating from patients; assay: Induction of cell death of B chronic lymphoid leukemia cells (B2 lymphocytes) from patients; assay type: cell-based, human; settings: B2 lymphocytes from CLL patients, MTS reduction / LDH release
Protocol: The B2 lymphocytes are lymphocytes involved in […] chronic lymphoid leukemia.
Cell viability is determined by the reduction of 3-(4,5-dimethylthiazol-2-yl)-5-(3-carboxymethoxyphenyl)-2-(4-sulfophenyl)-2H-tetrazolium (MTS).
Cell death is determined by the measurement of the level of the activity of the lactate dehydrogenase (LDH) released during lysis of the cells. The two processes are described in detail in “Ribas J. and Boix J. Cell differentiation, caspase inhibition, and macromolecular synthesis blockage, but not BCL-2 or BCL-XL proteins protect SH-SY5Y cells from apoptosis triggered by two CDK inhibitory drugs.
In table 2, the values shown are the mean inhibitory concentration IC50 values, expressed in μM.

DYRK1A = target: T1, DYRK1A (Homo sapiens, UniProt Q13627); assay: Kinase assay DYRK1A; assay type: biochemical; settings: 15 μM ATP, 30° C.
T1 construct: host or cells: E. coli
Protocol: (§1) Assaying is carried out with 1 mg histone H1/ml, in the presence of 15 μm [γ-^33P]ATP (3000 Ci/mmol; 10 mCi/ml) in a final volume of 30 μl. After incubating at 30° C. for 30 min, 25 μl aliquots of supernatant were deposited on 2.5×3 cm pieces of Whatman P8 phosphocellulose papers and then, 20 sec. later, the filters were washed 5 times in a solution of 10 ml of phosphoric acid/liter. The filters are subsequently counted in the presence of 1 ml of ACS (Amersham).
DYRK1A (human, recombinant, expressed in E. coli cells) is assayed like CDK1/cyclin B.
(§2) The mean inhibitory concentration IC50 values were calculated from the dose/response curves and are listed in μM in the following table I.

CDK9/cyclin T = target: T2, CDK9/cyclin T (Homo sapiens, UniProt P50750); assay: Kinase assay CDK9/cyclin T; assay type: biochemical; settings: 15 μM ATP, 30° C., pRB fragment substrate
T2 construct: host or cells: insect cells
T2 sequence (P50750 whole entry, the tested form may be a part): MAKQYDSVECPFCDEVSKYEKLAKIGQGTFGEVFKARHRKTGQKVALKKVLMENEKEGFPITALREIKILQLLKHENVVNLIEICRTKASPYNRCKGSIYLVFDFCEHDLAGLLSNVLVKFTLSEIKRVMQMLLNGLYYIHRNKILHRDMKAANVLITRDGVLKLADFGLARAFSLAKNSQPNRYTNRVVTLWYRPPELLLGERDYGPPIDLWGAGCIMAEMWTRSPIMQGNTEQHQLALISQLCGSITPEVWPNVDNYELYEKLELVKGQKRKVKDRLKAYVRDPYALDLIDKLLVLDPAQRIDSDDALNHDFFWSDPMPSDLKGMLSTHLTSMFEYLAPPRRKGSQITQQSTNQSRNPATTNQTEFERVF
T2 sequence (O60563 whole entry partner, the tested form may be a part): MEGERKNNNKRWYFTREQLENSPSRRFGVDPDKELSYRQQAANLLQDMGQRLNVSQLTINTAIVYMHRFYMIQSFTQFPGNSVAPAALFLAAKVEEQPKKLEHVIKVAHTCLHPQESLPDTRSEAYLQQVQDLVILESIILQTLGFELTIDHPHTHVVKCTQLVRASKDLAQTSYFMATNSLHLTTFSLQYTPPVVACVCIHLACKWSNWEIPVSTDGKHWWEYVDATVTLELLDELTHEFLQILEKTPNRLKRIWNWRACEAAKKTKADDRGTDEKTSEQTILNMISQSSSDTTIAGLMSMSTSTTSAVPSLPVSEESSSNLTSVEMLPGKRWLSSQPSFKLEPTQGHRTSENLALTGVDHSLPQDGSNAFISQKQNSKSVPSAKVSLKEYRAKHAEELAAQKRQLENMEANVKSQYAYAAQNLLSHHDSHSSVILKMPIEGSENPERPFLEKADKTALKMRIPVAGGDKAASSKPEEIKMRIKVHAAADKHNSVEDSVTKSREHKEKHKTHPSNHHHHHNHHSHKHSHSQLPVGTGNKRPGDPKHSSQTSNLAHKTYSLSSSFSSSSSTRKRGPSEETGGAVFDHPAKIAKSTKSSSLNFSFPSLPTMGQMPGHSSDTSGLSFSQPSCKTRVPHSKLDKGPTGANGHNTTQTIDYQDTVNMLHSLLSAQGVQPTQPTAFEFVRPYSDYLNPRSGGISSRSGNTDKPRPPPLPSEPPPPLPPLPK
Protocol: as §1, §2

Erk2 = Erk2 (Homo sapiens, UniProt P28482); assay: Kinase assay Erk2; assay type: biochemical; settings: 15 μM ATP, 30° C.
Chain of Erk2 (P28482 whole entry, species assumed): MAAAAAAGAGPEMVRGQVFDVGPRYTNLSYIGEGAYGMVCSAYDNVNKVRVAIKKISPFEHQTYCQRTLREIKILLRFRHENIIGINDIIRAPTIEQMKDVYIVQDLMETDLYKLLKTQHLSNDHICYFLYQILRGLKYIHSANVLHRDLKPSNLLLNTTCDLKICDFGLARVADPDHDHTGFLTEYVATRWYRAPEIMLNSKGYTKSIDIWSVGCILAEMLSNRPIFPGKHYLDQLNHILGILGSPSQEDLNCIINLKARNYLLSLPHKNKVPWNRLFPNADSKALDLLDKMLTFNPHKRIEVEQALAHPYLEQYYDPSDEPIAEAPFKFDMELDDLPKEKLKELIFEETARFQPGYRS
Protocol: as §2

Solubility in water = assay type: physicochemical
GSK-3 α/β = assay: Kinase assay GSK-3α/β; assay type: biochemical, pig; settings: 15 μM ATP, 30° C., buffer A, GS-1 substrate
Protocol: as §1, with “After” for “Assaying is carried out with 1 mg histone H1/ml, in the presence of 15 μm [γ-^33P]ATP (3000 Ci/mmol; 10 mCi/ml) in a final volume of 30 μl. After”
as §2

B-CLL = B-CLL patients; cited from earlier work

- IC50 (CK1δ/e): 400 nM
- IC50 (DYRK1A): 3600 nM
- IC50 (CDK9/cyclin T): 180 nM
- IC50 (Erk2): 3600 nM
Compound: CC[C@H](CO)Nc1nc(NCc2ccc(-c3ccccn3)cc2)c2ncn(C(C)C)c2n1 [Compound of formula Ia]
- IC50 ([1]; Homo sapiens, Lymphocyte): 200 nM

- IC50 (CK1δ/e): 610 nM
- solubility (Solubility in water): 3.3 µg/mL
- IC50 (DYRK1A): 900 nM
- IC50 (CDK9/cyclin T): 110 nM
- IC50 (Erk2): 2100 nM
- IC50 (GSK-3 α/β): ≥ 30000 nM
Compound: CC[C@@H](CO)Nc1nc(NCc2ccc(-c3ccccn3)cc2)c2ncn(C(C)C)c2n1 [Compound of formula Ib]
- IC50 ([1]; Homo sapiens, Lymphocyte): 90 nM

Compound: CCC(CO)Nc1nc(NCc2ccc(-c3ccccc3)cc2)c2ncn(C(C)C)c2n1 (stereo not drawn) [Compound of formula Ic]
- solubility (Solubility in water): 0.5 µg/mL
- IC50 ([1]; Homo sapiens, Lymphocyte): 1250 nM

Compound: CC(C)n1cnc2c(NCc3ccc(-c4ccccn4)cc3)nc(NC(CO)CO)nc21 [Compound of formula Id, 2-(1,3-Dihydroxyprop-2-ylamino)-6-[4-(2-pyridyl)phenylmethylamino]-9-isopropylpurine]
- IC50 ([1]; Homo sapiens, Lymphocyte): 250 nM

Compound: CC(C)[C@H](CO)Nc1nc(NCc2ccc(-c3ccccn3)cc2)c2ncn(C(C)C)c2n1 [Compound of formula Ie]
- IC50 ([1]; Homo sapiens, Lymphocyte): 510 nM

Compound: CC(C)[C@H](CO)Nc1nc(NCc2ccc(-c3ccccn3)cc2)c2ncn(C(C)C)c2n1 [Compound of formula If]
- IC50 [1]: 380 nM

Compound: alemtuzumab: therapeutic antibody against an antigen expressed on leukocytes and leukemic B lymphocytes of CLL
- hematologic response (B-CLL): 33%
